Measurements taken from ChEMBL document CHEMBL3822445, “Histone demethylating agents as potential S-adenosyl-l-methionine-competitors” (Medchemcomm, 2016).
The source made the active and inactive calls. The calls are words filed in the database; no cut-off is given here.

system: MCF7; assay: Induction of apoptosis in human MCF7 cells assessed as viable cells at 15 uM after 48 hrs by AnnexinV-FITC staining based flow cytometry (reference value: 74.4 +/- 9.1 %); assay type: functional; conditions: MCF7, 48 h, read-out: Activity

Compound | viability at 15 µM [%]
CCCCN1C(=O)[C@@H]2Cc3c(n(CO)c4ccccc34)CN2C1=O | 69.4
CN1CCN(C(=O)[C@H]2Cc3c([nH]c4ccccc34)[C@@H]3N(C)c4ccccc4C(=O)N23)CC1 | 64.6

system: not listed separately; assay: Antiproliferative activity against human Ovarian cancer LA#83 cells assessed as cell survival at 20 uM after 72 hrs by MTT assay relative to control; assay type: functional; conditions: read-out: Survival

Compound | viability at 20 µM [%]
C#Cc1cccc(Nc2ncnc3cc(OCCOC)c(OCCOC)cc23)c1 [ERLOTINIB] | 24.7
CCCCN1C(=O)[C@@H]2Cc3c(n(CO)c4ccccc34)CN2C1=O | 91.8
CN1CCN(C(=O)[C@H]2Cc3c([nH]c4ccccc34)[C@@H]3N(C)c4ccccc4C(=O)N23)CC1 | 77.3

system: MCF7; assay: Cell cycle arrest in human MCF7 cells assessed as accumulation at G2/M phase at 15 uM after 72 hrs by flow cytometry relative to control; assay type: functional; conditions: not given

Compound | Activity
CN1CCN(C(=O)[C@H]2Cc3c([nH]c4ccccc34)[C@@H]3N(C)c4ccccc4C(=O)N23)CC1 | Active

system: MCF7; assay: Induction of apoptosis in human MCF7 cells assessed as early apoptotic cells at 15 uM after 48 hrs by AnnexinV-FITC staining based flow cytometry (reference value: 7.8 +/- 5.3 %); assay type: functional; conditions: not given

Compound | Activity [%]
CCCCN1C(=O)[C@@H]2Cc3c(n(CO)c4ccccc34)CN2C1=O | 13.1
CN1CCN(C(=O)[C@H]2Cc3c([nH]c4ccccc34)[C@@H]3N(C)c4ccccc4C(=O)N23)CC1 | 13.6

system: MCF7; assay: Induction of apoptosis in human MCF7 cells assessed as late apoptotic cells at 15 uM after 48 hrs by AnnexinV-FITC staining based flow cytometry (reference value: 7.6 +/- 5.9 %); assay type: functional; conditions: not given

Compound | Activity [%]
CCCCN1C(=O)[C@@H]2Cc3c(n(CO)c4ccccc34)CN2C1=O | 13.5
CN1CCN(C(=O)[C@H]2Cc3c([nH]c4ccccc34)[C@@H]3N(C)c4ccccc4C(=O)N23)CC1 | 12.2

system: MCF7; assay: Induction of apoptosis in human MCF7 cells assessed as viable cells at 15 uM after 72 hrs by AnnexinV-FITC staining based flow cytometry (reference value: 60.5 +/- 6 %); assay type: functional; conditions: MCF7, 72 h, read-out: Activity

Compound | viability at 15 µM [%]
CCCCN1C(=O)[C@@H]2Cc3c(n(CO)c4ccccc34)CN2C1=O | 58.6
CN1CCN(C(=O)[C@H]2Cc3c([nH]c4ccccc34)[C@@H]3N(C)c4ccccc4C(=O)N23)CC1 | 54.7

system: MCF7; assay: Induction of apoptosis in human MCF7 cells assessed as necrotic cells at 15 uM after 48 hrs by AnnexinV-FITC staining based flow cytometry (reference value: 10.2 +/- 1.9 %); assay type: functional; conditions: not given

Compound | Activity [%]
CCCCN1C(=O)[C@@H]2Cc3c(n(CO)c4ccccc34)CN2C1=O | 4.1
CN1CCN(C(=O)[C@H]2Cc3c([nH]c4ccccc34)[C@@H]3N(C)c4ccccc4C(=O)N23)CC1 | 9.6

system: MCF7; assay: Induction of apoptosis in human MCF7 cells assessed as late apoptotic cells at 15 uM after 72 hrs by AnnexinV-FITC staining based flow cytometry (reference value: 11.8 +/- 2.2 %); assay type: functional; conditions: not given

Compound | Activity [%]
CCCCN1C(=O)[C@@H]2Cc3c(n(CO)c4ccccc34)CN2C1=O | 13.7
CN1CCN(C(=O)[C@H]2Cc3c([nH]c4ccccc34)[C@@H]3N(C)c4ccccc4C(=O)N23)CC1 | 15.8

system: MSTO-211H; assay: Antiproliferative activity against human MSTO-211H cells after 48 to 72 hrs by MTT assay; assay type: functional, cell-based; conditions: not given

Compound | IC50 [µM]
CCCCN1C(=O)[C@@H]2Cc3c(n(CO)c4ccccc34)CN2C1=O | > 20
CN1CCN(C(=O)[C@H]2Cc3c([nH]c4ccccc34)[C@@H]3N(C)c4ccccc4C(=O)N23)CC1 | 6.6

system: MCF7; assay: Inhibition of DNA methylation in human MCF7 cells assessed as reduction in H3K27me3 levels at 15 uM after 48 hrs by Western blot analysis; assay type: cell-based; conditions: not given

Compound | inhibition [%]
CCCCN1C(=O)[C@@H]2Cc3c(n(CO)c4ccccc34)CN2C1=O | 40
CN1CCN(C(=O)[C@H]2Cc3c([nH]c4ccccc34)[C@@H]3N(C)c4ccccc4C(=O)N23)CC1 | 30

system: MCF7; assay: Antiproliferative activity against human MCF7 cells after 48 to 72 hrs by MTT assay; assay type: functional, cell-based; conditions: not given

Compound | IC50 [µM]
CCCCN1C(=O)[C@@H]2Cc3c(n(CO)c4ccccc34)CN2C1=O | 38.7
CN1CCN(C(=O)[C@H]2Cc3c([nH]c4ccccc34)[C@@H]3N(C)c4ccccc4C(=O)N23)CC1 | 34.8

system: MCF7; assay: Induction of apoptosis in human MCF7 cells assessed as necrotic cells at 15 uM after 72 hrs by AnnexinV-FITC staining based flow cytometry (reference value: 7.6 +/- 1 %); assay type: functional; conditions: not given

Compound | Activity [%]
CCCCN1C(=O)[C@@H]2Cc3c(n(CO)c4ccccc34)CN2C1=O | 7.1
CN1CCN(C(=O)[C@H]2Cc3c([nH]c4ccccc34)[C@@H]3N(C)c4ccccc4C(=O)N23)CC1 | 6.2

system: not listed separately; assay: Antiproliferative activity against human Ovarian cancer LA#110 cells assessed as cell survival at 20 uM after 72 hrs by MTT assay relative to control; assay type: functional; conditions: read-out: Survival

Compound | viability at 20 µM [%]
C#Cc1cccc(Nc2ncnc3cc(OCCOC)c(OCCOC)cc23)c1 [ERLOTINIB] | 27.7
CCCCN1C(=O)[C@@H]2Cc3c(n(CO)c4ccccc34)CN2C1=O | 71.8
CN1CCN(C(=O)[C@H]2Cc3c([nH]c4ccccc34)[C@@H]3N(C)c4ccccc4C(=O)N23)CC1 | 56.7

system: MCF7; assay: Induction of apoptosis in human MCF7 cells assessed as early apoptotic cells at 15 uM after 72 hrs by AnnexinV-FITC staining based flow cytometry (reference value: 20.1 +/- 7.3 %); assay type: functional; conditions: not given

Compound | Activity [%]
CCCCN1C(=O)[C@@H]2Cc3c(n(CO)c4ccccc34)CN2C1=O | 20.6
CN1CCN(C(=O)[C@H]2Cc3c([nH]c4ccccc34)[C@@H]3N(C)c4ccccc4C(=O)N23)CC1 | 23.3

system: MCF7; assay: Inhibition of DNA methylation in human MCF7 cells assessed as reduction in H3K9me3 levels at 15 uM after 48 hrs by Western blot analysis; assay type: cell-based; conditions: not given

Compound | inhibition [%]
CCCCN1C(=O)[C@@H]2Cc3c(n(CO)c4ccccc34)CN2C1=O | 50
CN1CCN(C(=O)[C@H]2Cc3c([nH]c4ccccc34)[C@@H]3N(C)c4ccccc4C(=O)N23)CC1 | 70

system: not listed separately; assay: Antiproliferative activity against human Ovarian cancer DC#110 cells assessed as cell survival at 20 uM after 72 hrs by MTT assay relative to control; assay type: functional; conditions: read-out: Survival

Compound | viability at 20 µM [%]
C#Cc1cccc(Nc2ncnc3cc(OCCOC)c(OCCOC)cc23)c1 [ERLOTINIB] | 75.3
CCCCN1C(=O)[C@@H]2Cc3c(n(CO)c4ccccc34)CN2C1=O | 93.8
CN1CCN(C(=O)[C@H]2Cc3c([nH]c4ccccc34)[C@@H]3N(C)c4ccccc4C(=O)N23)CC1 | 87.7

system: MCF7; assay: Cell cycle arrest in human MCF7 cells assessed as accumulation at G0/G1 phase at 15 uM after 24 hrs by flow cytometry relative to control; assay type: functional; conditions: not given

Compound | Activity [%]
CCCCN1C(=O)[C@@H]2Cc3c(n(CO)c4ccccc34)CN2C1=O | 3

system: not listed separately; assay: Antiproliferative activity against human Ovarian cancer DC#83 cells assessed as cell survival at 20 uM after 72 hrs by MTT assay relative to control; assay type: functional; conditions: read-out: Survival

Compound | viability at 20 µM [%]
C#Cc1cccc(Nc2ncnc3cc(OCCOC)c(OCCOC)cc23)c1 [ERLOTINIB] | 94.5
CCCCN1C(=O)[C@@H]2Cc3c(n(CO)c4ccccc34)CN2C1=O | 96
CN1CCN(C(=O)[C@H]2Cc3c([nH]c4ccccc34)[C@@H]3N(C)c4ccccc4C(=O)N23)CC1 | 84.2

system: MCF7; assay: Inhibition of DNA methylation in human MCF7 cells assessed as decrease in 5-methylcytosine level by ELISA; assay type: cell-based; conditions: not given

Compound | inhibition
CCCCN1C(=O)[C@@H]2Cc3c(n(CO)c4ccccc34)CN2C1=O | Active
CN1CCN(C(=O)[C@H]2Cc3c([nH]c4ccccc34)[C@@H]3N(C)c4ccccc4C(=O)N23)CC1 | Active

molecular target: T1, Histone-lysine N-methyltransferase EHMT2 (Homo sapiens) (UniProt Q96KQ7); assay: Inhibition of G9a in human MCF7 nuclear extracts assessed as reduction in H3K27 levels at 15 uM after 48 hrs; assay type: cell-based; conditions: not given
T1 sequence (whole entry): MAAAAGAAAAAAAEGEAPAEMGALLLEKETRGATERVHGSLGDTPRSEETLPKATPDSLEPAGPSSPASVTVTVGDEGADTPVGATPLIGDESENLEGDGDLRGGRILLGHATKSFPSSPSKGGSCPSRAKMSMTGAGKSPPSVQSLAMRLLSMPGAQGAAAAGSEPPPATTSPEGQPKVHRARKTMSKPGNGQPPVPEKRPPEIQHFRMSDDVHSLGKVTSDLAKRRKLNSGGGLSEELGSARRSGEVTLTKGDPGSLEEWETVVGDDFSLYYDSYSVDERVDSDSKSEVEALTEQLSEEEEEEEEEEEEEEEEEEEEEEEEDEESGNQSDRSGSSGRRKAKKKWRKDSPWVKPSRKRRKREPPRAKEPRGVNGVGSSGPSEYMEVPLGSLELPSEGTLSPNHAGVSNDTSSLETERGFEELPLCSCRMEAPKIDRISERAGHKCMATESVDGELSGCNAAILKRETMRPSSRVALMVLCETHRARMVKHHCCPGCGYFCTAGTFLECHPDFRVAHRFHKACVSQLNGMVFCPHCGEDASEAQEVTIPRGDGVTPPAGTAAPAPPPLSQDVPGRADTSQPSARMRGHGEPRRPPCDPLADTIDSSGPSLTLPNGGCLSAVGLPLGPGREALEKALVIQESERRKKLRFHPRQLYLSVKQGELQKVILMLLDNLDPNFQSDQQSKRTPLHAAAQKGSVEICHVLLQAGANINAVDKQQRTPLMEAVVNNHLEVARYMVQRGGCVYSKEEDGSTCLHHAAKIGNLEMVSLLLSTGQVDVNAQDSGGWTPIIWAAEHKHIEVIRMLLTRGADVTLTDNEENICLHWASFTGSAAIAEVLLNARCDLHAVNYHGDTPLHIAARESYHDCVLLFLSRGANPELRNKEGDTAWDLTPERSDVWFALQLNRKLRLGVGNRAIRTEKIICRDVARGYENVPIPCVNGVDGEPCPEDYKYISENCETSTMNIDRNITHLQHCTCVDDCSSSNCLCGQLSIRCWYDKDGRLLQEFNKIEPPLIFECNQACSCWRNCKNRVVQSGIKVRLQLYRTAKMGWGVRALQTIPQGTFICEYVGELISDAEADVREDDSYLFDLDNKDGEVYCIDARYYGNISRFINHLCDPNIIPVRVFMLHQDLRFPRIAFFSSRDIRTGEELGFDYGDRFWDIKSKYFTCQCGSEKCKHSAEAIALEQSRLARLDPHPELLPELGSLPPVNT

Compound | inhibition
CCCCN1C(=O)[C@@H]2Cc3c(n(CO)c4ccccc34)CN2C1=O | Active
CN1CCN(C(=O)[C@H]2Cc3c([nH]c4ccccc34)[C@@H]3N(C)c4ccccc4C(=O)N23)CC1 | Active

molecular target: T1, Histone-lysine N-methyltransferase EHMT2 (Homo sapiens); assay: Inhibition of G9a in human MCF7 nuclear extracts assessed as reduction in H3K9 levels at 15 uM after 48 hrs; assay type: cell-based; conditions: not given

Compound | inhibition
CCCCN1C(=O)[C@@H]2Cc3c(n(CO)c4ccccc34)CN2C1=O | Active
CN1CCN(C(=O)[C@H]2Cc3c([nH]c4ccccc34)[C@@H]3N(C)c4ccccc4C(=O)N23)CC1 | Active

system: not listed separately; assay: Antiproliferative activity against human H460 cells after 48 to 72 hrs by MTT assay; assay type: functional, cell-based; conditions: NCI-H460

Compound | IC50 [µM]
CCCCN1C(=O)[C@@H]2Cc3c(n(CO)c4ccccc34)CN2C1=O | > 20
CN1CCN(C(=O)[C@H]2Cc3c([nH]c4ccccc34)[C@@H]3N(C)c4ccccc4C(=O)N23)CC1 | 9.05

system: MCF7; assay: Inhibition of DNA methylation in human MCF7 cells assessed as decrease in methylation of RARbeta DNA by qPCR method; assay type: cell-based; conditions: not given

Compound | inhibition
CCCCN1C(=O)[C@@H]2Cc3c(n(CO)c4ccccc34)CN2C1=O | Active
CN1CCN(C(=O)[C@H]2Cc3c([nH]c4ccccc34)[C@@H]3N(C)c4ccccc4C(=O)N23)CC1 | Active
